Consider one molecule from ChEMBL document CHEMBL5380832, “Serine-/Cysteine-Based sp2-Iminoglycolipids as Novel TLR4 Agonists: Evaluation of Their Adjuvancy and Immunotherapeutic Properties in a Murine Model of Asthma” (J Med Chem, 2023).

The structures appear in SMILES notation. Active and inactive are the calls of the source. The rule behind the calls is not given here.

In the first data set the test system is Splenocyte. Nature of the data set: Immunostimulatory activity in wild-type C57BL/6JNarl mouse splenocytes assessed as increase in IFN-gamma expression level at 10 to 25 uM incubated for 48 hrs by ELISA. It is filed as functional, cell-based. The note with it: dose 10-25 µM. For orientation: In an ELISA, binding on a coated surface is turned into a signal by an enzyme label.
As to `CCCCCCCCCCCCNC(=O)[C@H](CO[C@@H]1[C@H](O)[C@@H](O)[C@@H](O)[C@H]2COC(=O)N21)NC(=O)CCCCCCCCCCC`, the outcome was Active.

Another data set deals with Splenocyte. Nature of the data set: Immunostimulatory activity in wild-type C57BL/6JNarl mouse splenocytes assessed as increase in IL-6 expression level at 10 to 25 uM incubated for 48 hrs by ELISA. The class given is functional, cell-based. As to conditions: dose 10-25 µM.
Turning to `CCCCCCCCCCCCNC(=O)[C@H](CO[C@@H]1[C@H](O)[C@@H](O)[C@@H](O)[C@H]2COC(=O)N21)NC(=O)CCCCCCCCCCC`, the result was Active.

The next data set relates to Splenocyte. The data set can be described thus: Immunostimulatory activity in MyD88 knockout C57BL/6JNarl mouse splenocytes assessed as increase in IFN-gamma expression level at 10 to 25 uM incubated for 48 hrs by ELISA. As to conditions: dose 10-25 µM. It is filed as functional, cell-based.
Turning to `CCCCCCCCCCCCNC(=O)[C@H](CO[C@@H]1[C@H](O)[C@@H](O)[C@@H](O)[C@H]2COC(=O)N21)NC(=O)CCCCCCCCCCC`, the outcome was inactive.

A further data set has as its system Splenocyte. Nature of the data set: Immunostimulatory activity in MyD88 knockout C57BL/6JNarl mouse splenocytes assessed as increase in IL-6 expression level at 10 to 25 uM incubated for 48 hrs by ELISA. The class given is functional, cell-based. The note with it: dose 10-25 µM.
As to `CCCCCCCCCCCCNC(=O)[C@H](CO[C@@H]1[C@H](O)[C@@H](O)[C@@H](O)[C@H]2COC(=O)N21)NC(=O)CCCCCCCCCCC`, the outcome was inactive.

In a further data set the target is Toll-like receptor 4 (Homo sapiens) (UniProt O00206). The data set can be described thus: Agonist activity at human TLR4 expressed in human HEK293 cells co-expressing human MD-2 and CD14 assessed as IL-8 expression level at 10 to 25 uM incubated for 24 hrs by ELISA. The class given is cell-based. As to conditions: filed as agonist, dose 10-25 µM.
Toll-like receptor 4 (Homo sapiens), sequence (O00206 whole entry): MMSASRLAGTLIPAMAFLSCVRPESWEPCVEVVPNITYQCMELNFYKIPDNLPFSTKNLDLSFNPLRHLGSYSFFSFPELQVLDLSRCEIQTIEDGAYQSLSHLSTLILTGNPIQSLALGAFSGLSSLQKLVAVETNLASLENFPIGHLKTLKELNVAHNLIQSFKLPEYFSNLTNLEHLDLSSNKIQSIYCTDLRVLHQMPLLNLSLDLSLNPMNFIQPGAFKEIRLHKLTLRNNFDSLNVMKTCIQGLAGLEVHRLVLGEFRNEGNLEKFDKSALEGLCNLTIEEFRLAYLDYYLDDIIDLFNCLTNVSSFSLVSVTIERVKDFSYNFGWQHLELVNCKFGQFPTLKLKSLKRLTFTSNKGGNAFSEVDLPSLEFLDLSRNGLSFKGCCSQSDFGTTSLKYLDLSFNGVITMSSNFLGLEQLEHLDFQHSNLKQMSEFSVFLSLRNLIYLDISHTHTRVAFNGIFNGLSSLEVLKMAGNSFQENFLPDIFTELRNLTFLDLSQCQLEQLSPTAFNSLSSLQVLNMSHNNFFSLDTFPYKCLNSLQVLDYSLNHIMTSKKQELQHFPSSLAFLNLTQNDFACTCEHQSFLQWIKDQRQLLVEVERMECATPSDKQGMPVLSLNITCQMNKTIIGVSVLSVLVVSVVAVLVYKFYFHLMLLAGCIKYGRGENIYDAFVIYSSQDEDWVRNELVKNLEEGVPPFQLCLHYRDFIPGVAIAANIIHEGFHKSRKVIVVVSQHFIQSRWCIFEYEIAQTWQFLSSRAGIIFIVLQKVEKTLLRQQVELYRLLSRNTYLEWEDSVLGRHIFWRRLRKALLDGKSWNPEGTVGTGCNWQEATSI
For the molecule `CCCCCCCCCCCCNC(=O)[C@H](CO[C@@H]1[C@H](O)[C@@H](O)[C@@H](O)[C@H]2COC(=O)N21)NC(=O)CCCCCCCCCCC`, the result was Active.

The next data set shares this target. Nature of the data set: Activation of TLR4 signaling in human HEK293 cells assessed as IL-8 expression level at 10 to 25 uM incubated for 24 hrs by ELISA. It is filed as cell-based. As to conditions: dose 10-25 µM.
Regarding `CCCCCCCCCCCCNC(=O)[C@H](CO[C@@H]1[C@H](O)[C@@H](O)[C@@H](O)[C@H]2COC(=O)N21)NC(=O)CCCCCCCCCCC`, the result was inactive.

For the next data set the target is unchanged. Nature of the data set: Activation of TLR4 signaling in human HEK293 cells expressing human MD-2 and CD14 assessed as IL-8 expression level at 10 to 25 uM incubated for 24 hrs by ELISA. It is filed as cell-based. As to conditions: dose 10-25 µM.
On to `CCCCCCCCCCCCNC(=O)[C@H](CO[C@@H]1[C@H](O)[C@@H](O)[C@@H](O)[C@H]2COC(=O)N21)NC(=O)CCCCCCCCCCC`, for which the result was inactive.

The target of the next data set is Toll-like receptor 2 (Homo sapiens) (UniProt O60603). Nature of the data set: Agonist activity at human TLR2 expressed in human HEK293 cells assessed as IL-8 expression level at 10 to 25 uM incubated for 24 hrs by ELISA. The class given is cell-based. As to conditions: dose 10-25 µM.
Toll-like receptor 2 (Homo sapiens), sequence (O60603 whole entry): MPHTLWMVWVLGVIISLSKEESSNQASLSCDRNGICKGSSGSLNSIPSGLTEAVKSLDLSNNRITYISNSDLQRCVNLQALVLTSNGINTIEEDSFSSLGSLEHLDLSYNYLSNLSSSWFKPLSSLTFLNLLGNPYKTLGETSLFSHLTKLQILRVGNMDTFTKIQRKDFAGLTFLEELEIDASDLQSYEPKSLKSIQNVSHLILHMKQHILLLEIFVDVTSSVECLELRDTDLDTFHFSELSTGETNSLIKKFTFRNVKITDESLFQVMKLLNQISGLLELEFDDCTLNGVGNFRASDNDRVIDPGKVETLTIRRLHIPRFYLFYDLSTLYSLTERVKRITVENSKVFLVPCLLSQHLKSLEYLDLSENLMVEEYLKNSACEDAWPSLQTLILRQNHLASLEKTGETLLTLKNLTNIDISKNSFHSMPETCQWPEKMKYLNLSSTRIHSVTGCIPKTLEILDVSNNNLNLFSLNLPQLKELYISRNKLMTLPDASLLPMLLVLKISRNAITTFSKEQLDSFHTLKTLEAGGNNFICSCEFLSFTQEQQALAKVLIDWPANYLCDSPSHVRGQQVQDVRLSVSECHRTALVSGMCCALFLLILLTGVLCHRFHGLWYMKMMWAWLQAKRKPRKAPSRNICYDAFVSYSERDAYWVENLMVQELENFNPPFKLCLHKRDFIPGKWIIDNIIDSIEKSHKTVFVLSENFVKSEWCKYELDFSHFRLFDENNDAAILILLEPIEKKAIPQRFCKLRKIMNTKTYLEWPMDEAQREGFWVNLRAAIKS
As for `CCCCCCCCCCCCNC(=O)[C@H](CO[C@@H]1[C@H](O)[C@@H](O)[C@@H](O)[C@H]2COC(=O)N21)NC(=O)CCCCCCCCCCC`, the result was inactive.

The next data set concerns Splenocyte. The data set can be described thus: Cytotoxicity in wild-type C57BL/6JNarl mouse splenocytes assessed as reduction in cell viability at 25 uM by MTT assay. It is filed as toxicity, cell-based.
Conditions: not given
For orientation: Tetrazolium dyes change colour on reduction, which living cells bring about.
As for `CCCCCCCCCCCCNC(=O)[C@H](CO[C@@H]1[C@H](O)[C@@H](O)[C@@H](O)[C@H]2COC(=O)N21)NC(=O)CCCCCCCCCCC`, the Activity result is on record as “Non-Toxic”.

In the next data set the test system is HEK293. The data set can be described thus: Cytotoxicity in human HEK293 cells assessed as reduction in cell viability at 25 uM by MTT assay. The class given is toxicity, cell-based. The note with it: hek293, 25 µM.
As for `CCCCCCCCCCCCNC(=O)[C@H](CO[C@@H]1[C@H](O)[C@@H](O)[C@@H](O)[C@H]2COC(=O)N21)NC(=O)CCCCCCCCCCC`, the Activity entry was “Non-Toxic”.

For the next data set, the target named is T1, Antigen-presenting glycoprotein CD1d1 (Mus musculus) (UniProt P11609).
T1 sequence (whole entry): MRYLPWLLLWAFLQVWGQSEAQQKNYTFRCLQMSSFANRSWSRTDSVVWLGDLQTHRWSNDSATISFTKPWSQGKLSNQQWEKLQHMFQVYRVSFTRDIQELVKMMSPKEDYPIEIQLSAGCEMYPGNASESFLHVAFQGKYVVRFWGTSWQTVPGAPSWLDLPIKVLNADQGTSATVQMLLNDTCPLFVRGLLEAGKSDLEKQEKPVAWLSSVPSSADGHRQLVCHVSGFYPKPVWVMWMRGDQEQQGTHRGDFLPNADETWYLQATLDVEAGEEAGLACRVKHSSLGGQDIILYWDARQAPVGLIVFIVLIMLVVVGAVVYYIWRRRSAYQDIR
Nature of the data set: Activation of CD1d signaling in mouse iNKT hybridoma DN3A4-1.2 cells co-cultured with mouse A20 cells expressing CD1d assessed as IL-2 expression level at 10 to 25 uM incubated for 24 hrs by ELISA. The class given is cell-based. As to conditions: iNKT hybridoma DN3A4-1.2 cell, dose 10-25 µM.
For `CCCCCCCCCCCCNC(=O)[C@H](CO[C@@H]1[C@H](O)[C@@H](O)[C@@H](O)[C@H]2COC(=O)N21)NC(=O)CCCCCCCCCCC`, the outcome was inactive.

A further data set has as its target T1, Antigen-presenting glycoprotein CD1d1 (Mus musculus). Nature of the data set: Binding affinity to mouse CD1d in alpha-GalCer stimulated mouse iNKT hybridoma DN3A4-1.2 cells expressing co-cultured with mouse A20 cells expressing mouse CD1d assessed as inhibition of alpha-GlaCer activity by measuring IL-2 expression level at 10 to 25 uM incubated for 24 hrs by ELISA. The class given is cell-based. The note with it: iNKT hybridoma DN3A4-1.2 cell, dose 10-25 µM.
With `CCCCCCCCCCCCNC(=O)[C@H](CO[C@@H]1[C@H](O)[C@@H](O)[C@@H](O)[C@H]2COC(=O)N21)NC(=O)CCCCCCCCCCC`, the outcome was inactive.

A further data set relates to PBMC. Nature of the data set: Immunostimulatory activity in human PBMC cells assessed as increase in IFN-gamma expression level at 10 to 25 uM by ELISA. It is filed as functional, cell-based. The note with it: dose 10-25 µM.
Consider `CCCCCCCCCCCCNC(=O)[C@H](CO[C@@H]1[C@H](O)[C@@H](O)[C@@H](O)[C@H]2COC(=O)N21)NC(=O)CCCCCCCCCCC`, for which the outcome was Active.

Another data set has as its system PBMC. Nature of the data set: Immunostimulatory activity in human PBMC cells assessed as increase in IL-6 expression level at 10 to 25 uM by ELISA. The class given is functional, cell-based. As to conditions: dose 10-25 µM.
With `CCCCCCCCCCCCNC(=O)[C@H](CO[C@@H]1[C@H](O)[C@@H](O)[C@@H](O)[C@H]2COC(=O)N21)NC(=O)CCCCCCCCCCC`, the outcome was Active.

In the next data set the test system is Mus musculus. The data set can be described thus: Immunostimulatory activity in C57BL/6JNarl mouse assessed as increase in IFN-gamma expression level in serum at 20 microg/g, ip and measured after 2 hrs by ELISA. It is filed as functional, organism-based. The note with it: dose 20.0 µg/g.
As to `CCCCCCCCCCCCNC(=O)[C@H](CO[C@@H]1[C@H](O)[C@@H](O)[C@@H](O)[C@H]2COC(=O)N21)NC(=O)CCCCCCCCCCC`, the result was Active.

Another data set relates to Mus musculus. The data set can be described thus: Immunostimulatory activity in C57BL/6JNarl mouse assessed as increase in IL-4 expression level in serum at 20 microg/g, ip and measured after 2 hrs by ELISA. It is filed as functional, organism-based. The note with it: dose 20.0 µg/g.
For the molecule `CCCCCCCCCCCCNC(=O)[C@H](CO[C@@H]1[C@H](O)[C@@H](O)[C@@H](O)[C@H]2COC(=O)N21)NC(=O)CCCCCCCCCCC`, the outcome was Active.

Another data set has as its system Mus musculus. Nature of the data set: Immunostimulatory activity in C57BL/6JNarl mouse assessed as increase in IFN-gamma expression level in serum at 20 microg/g, ip and measured after 18 hrs by ELISA. The class given is functional, organism-based. The note with it: dose 20.0 µg/g.
Take `CCCCCCCCCCCCNC(=O)[C@H](CO[C@@H]1[C@H](O)[C@@H](O)[C@@H](O)[C@H]2COC(=O)N21)NC(=O)CCCCCCCCCCC`: the result was Active.

The next data set has as its system Mus musculus. The data set can be described thus: Immunostimulatory activity in C57BL/6JNarl mouse assessed as increase in IL-4 expression level in serum at 20 microg/g, ip and measured after 18 hrs by ELISA. It is filed as functional, organism-based. The note with it: dose 20.0 µg/g.
For the molecule `CCCCCCCCCCCCNC(=O)[C@H](CO[C@@H]1[C@H](O)[C@@H](O)[C@@H](O)[C@H]2COC(=O)N21)NC(=O)CCCCCCCCCCC`, the outcome was Active.

The next data set has as its system Mus musculus. Nature of the data set: Immuno-adjuvant activity in C57BL/6JNarl mouse […] with OT-1 mouse splenocytes assessed as fold increase in OVA-specific CD8+ T cell proliferation at 20 microg/g, ip in presence of OVA (257 to 264 residues) peptide treatment by flow cytometry relative to control. It is filed as functional. As to conditions: dose 20 µg/g.
As for `CCCCCCCCCCCCNC(=O)[C@H](CO[C@@H]1[C@H](O)[C@@H](O)[C@@H](O)[C@H]2COC(=O)N21)NC(=O)CCCCCCCCCCC`, the “fold change (FC)” value is listed as 10.

The next data set deals with Mus musculus. Nature of the data set: Immunomodulatory activity in OVA-sensitized asthmatic BALB/c mouse model assessed as inhibition of methacholine induced airway hyperreactivity by measuring pulmonary resistance at 20 microg/g, ip administered after day 14 OVA sensitization. The class given is functional. Further details: scale not given: the % may be the effect or the level left. The note with it: dose 20 µg/g.
Consider `CCCCCCCCCCCCNC(=O)[C@H](CO[C@@H]1[C@H](O)[C@@H](O)[C@@H](O)[C@H]2COC(=O)N21)NC(=O)CCCCCCCCCCC`, for which the Activity came to 50%.

The next data set deals with Mus musculus. The data set can be described thus: Immunomodulatory activity in OVA-sensitized asthmatic BALB/c mouse model assessed as reduction in IL-4 expression level in BALF at 20 microg/g, ip administered after day 14 OVA sensitization by ELISA. The note with it: dose 20.0 µg/g. The class given is functional, organism-based.
Take `CCCCCCCCCCCCNC(=O)[C@H](CO[C@@H]1[C@H](O)[C@@H](O)[C@@H](O)[C@H]2COC(=O)N21)NC(=O)CCCCCCCCCCC`: the outcome was Active.

The subject of a further data set is Mus musculus. Nature of the data set: Immunomodulatory activity in OVA-sensitized asthmatic BALB/c mouse model assessed as reduction in IL-4 expression level in lung at 20 microg/g, ip administered after day 14 OVA sensitization by ELISA. It is filed as functional, organism-based. The note with it: dose 20.0 µg/g.
As to `CCCCCCCCCCCCNC(=O)[C@H](CO[C@@H]1[C@H](O)[C@@H](O)[C@@H](O)[C@H]2COC(=O)N21)NC(=O)CCCCCCCCCCC`, the outcome was Active.

The subject of a further data set is Mus musculus. The data set can be described thus: Anti-inflammatory activity in OVA-sensitized asthmatic BALB/c mouse model assessed as reduction in IL-13 expression level in BALF at 20 microg/g, ip administered after day 14 OVA sensitization by ELISA. It is filed as functional, organism-based. As to conditions: dose 20.0 µg/g.
For the molecule `CCCCCCCCCCCCNC(=O)[C@H](CO[C@@H]1[C@H](O)[C@@H](O)[C@@H](O)[C@H]2COC(=O)N21)NC(=O)CCCCCCCCCCC`, the result was Active.

In the next data set the test system is Mus musculus. Nature of the data set: Anti-inflammatory activity in OVA-sensitized asthmatic BALB/c mouse model assessed as reduction in IL-13 expression level in lung at 20 microg/g, ip administered after day 14 OVA sensitization by ELISA. The class given is functional, organism-based. The note with it: dose 20.0 µg/g.
`CCCCCCCCCCCCNC(=O)[C@H](CO[C@@H]1[C@H](O)[C@@H](O)[C@@H](O)[C@H]2COC(=O)N21)NC(=O)CCCCCCCCCCC`: the outcome was Active.
